# A melting point compilation (Tetko et al.; mined from patent text by program, amines drawn as free bases though some values may be those of a salt)
row,Compound,melting point
1,Cc1c(-c2ccc(O)cc2)sc(C=O)c1-c1ccc(O)cc1,223 to 225 °C
2,O=Cc1cc(C2CC2)nn1Cc1ccc(C(F)(F)F)cc1Cl,94 to 96 °C
3,Cc1oc(-c2ccco2)nc1COc1ccc(CCl)cc1Br,125 to 126 °C
4,COc1cccc(N(C)C(=O)Oc2ccc(Cl)c(C(C)(C)C)c2)n1,54 to 56 °C
5,CN1CC(C(Oc2ccccc2[N+](=O)[O-])c2ccccc2)OCC1=O (centres undefined),192 to 195 °C
6,CCCCCN(CCC12CC3CC(CC(C3)C1)C2)C(=O)NCCc1cccnc1,112 to 114 °C
7,O=S(=O)(Nc1c(Cl)cccc1Cl)c1nc2ncccn2n1,278 to 280 °C
8,c1ccc(C2(N3CCC(n4c(OC5CCNCC5)nc5ccccc54)CC3)CCCCCC2)cc1,114 to 118 °C
9,N=C(Nc1ccc(Cl)cc1)Nc1ncccc1OCc1c(F)cc(F)cc1F,161 to 162 °C
10,Cc1nc(C2CCCCC2)c2nc(-c3ccccc3)cc-2[nH]1,> 280 °C
11,Oc1cc(C(F)(F)F)ccc1I,36 to 38 °C
12,Clc1cnc(Br)c(Cl)c1,37 to 38 °C
13,CN(C)C1(c2ccccc2)CCC(c2[nH]c3ccccc3c2C2CC2)CC1 (centres undefined),238 to 245 °C
14,COc1ccc(S(=O)(=O)Nc2nc(-c3ccccc3)nn2C)cc1OC,279 to 280 °C
15,Fc1ccc(-c2[nH]cc(CCCN3CCN(Cc4ccccc4)CC3)c2-c2ccncc2)cc1,153 to 154 °C
16,O[Si](Cn1cncn1)(c1ccc(F)cc1)c1ccc(F)cc1,130 to 131 °C
17,C=CCSC(C#N)C1=NCCc2cc(OC)c(OC)cc21 (centres undefined),146 to 147 °C
18,COc1cc2c(N)nc(N3CCN(C(=O)C4COc5ccccc5O4)CC3)nc2c(OC)c1OC (centres undefined),269 to 271 °C
19,CN1CCC(=C2c3ccc(Cl)cc3CCc3cccnc32)CC1,116 to 119 °C
20,COCc1cccc(C=CC(O)c2ccccc2)c1NC(=O)CC1c2ccccc2Oc2ccccc21 (centres undefined),204 to 206 °C

row,Compound,melting point
1,Cc1cc(C)c(Nc2nc(C)ncc2S(=O)(=O)c2ccc(N3CCCC3)cc2)c(C)c1,196 to 198 °C
2,CNCC1CC(C)(O)c2ccc(S(=O)(=O)c3ccccc3)cc2O1 (centres undefined),164 to 165 °C
3,CC(Nc1ccc2c(n1)CC1CCCCC1C2=O)c1ccccc1 (centres undefined),156 to 158 °C
4,N#CCCNC(=O)c1cccc(-c2cccc3cc(Cc4cccc(C(F)(F)F)c4)[nH]c23)c1,174 to 178 °C
5,CSc1nc(NN2CCCCC2)c2ncn(C3OC(CCl)C(O)C3O)c2n1 (centres undefined),213 to 215 °C
6,Clc1ccc(-n2ncnc2-c2cnccn2)cc1,129 to 131 °C
7,Cc1ncc2n1-c1ccc(Cl)cc1C(c1ccccc1F)NC2 (centres undefined),200 to 203 °C
8,CCCOCCNC(=O)C(c1ccccc1)c1ccccc1,77.8 to 78.9 °C
9,OC1(CCc2ccc3[nH]cc(C4CCNCC4)c3c2)CCCC1,190 to 191 °C
10,COc1cc(OC)nc(Sc2nccc(-c3ccc(Cl)cc3)c2C(=O)O)n1,219 to 223 °C
11,O=C(O)c1ncn2c1CN=C(c1ccccc1)c1cc(Br)ccc1-2,> 250 °C
12,COc1ccc(C(=O)Nc2nc3ccc(N(C)C)cc3c(NCc3cccs3)c2C#N)cc1,163 °C
13,O=C1CCCC(c2ccccc2)(c2ccccc2)N1,193 to 196 °C
14,Cc1ncoc1-c1ccc(C#N)cc1,120 to 121 °C
15,CNc1nc(-c2cccc(NC(=O)c3cccc(Cl)c3)c2)c2cc(OC)c(OC)cc2n1,124 to 126 °C
16,CCCCCc1ocnc1C(=O)O,84 to 85 °C
17,CS(=O)(=O)c1ccc(-c2c(Br)c3cccccc-3c2-c2ccccc2)cc1,172 to 173 °C
18,C[C@@H](O)[C@H]1CC[C@H]2[C@@H]3C=CC4=CC(=O)C=C[C@]4(C)[C@H]3CC[C@]12C,162 to 164 °C
19,NNc1cc2ccccc2[nH]1,165 to 167 °C

# Results, then the molecule that gave them:
row,melting point,Compound
1,51 to 54 °C,COc1ccc(NS(=O)(=O)c2ccc(N)cc2OC)cc1
2,50 to 52 °C,CCN(CC)C(=O)C(C)(C)n1cc(C)c(-c2ccccc2)n1
3,165 to 167 °C,COC(=O)c1ccnc(N2CCN(Cc3cccnc3)C2=O)c1
4,238 to 242 °C,CCOC(=O)c1c[nH]c2c(C)csc2c1=O
5,190 to 191 °C,COc1ccc(C(=O)Nc2ccc(C(C)(C)CN3CCOC3=O)cc2)cc1OC
6,175 to 176 °C,CCOC(=O)c1c(C)cc2[nH]c(=O)n(-c3ccccc3C(F)(F)F)c(=O)c2c1C
7,166 to 167 °C,CC1=C(C(=O)OC(C)C)C(c2cccc([N+](=O)[O-])c2)N(C(=O)NOCc2ccccc2)C(=O)N1 (centres undefined)
8,200 to 202 °C,CC(C)COc1ccc(-c2nc3cccc(O)c3s2)cc1C#N
9,130 to 132 °C,COc1ccc2c(c1)c(CC(=O)O)c(C)n2C(=O)c1ccc(F)cc1
10,155 to 160 °C,NC(=O)c1ccc(-c2ccnc(C(=O)N(O)Cc3ccccc3)c2)cc1
11,134 °C,CC(C)(C)NC(=O)c1ncc[nH]1
12,273 to 276 °C,COc1ccc2ccc3nc(C(N)=O)cn3c2c1
13,182 °C,COc1cc(OC)cc(Sc2ccccc2C(=O)O)c1
14,> 265 °C,Cc1ccc(C)n1-c1cc2[nH]c(=O)c(=O)n(CC(=O)O)c2cc1Cl
15,150 to 151 °C,CCN1c2ncccc2C(=O)Nc2c(C(F)(F)F)cc(C)nc21
16,172 °C,O=Cc1ccc2[nH]c(C(=O)OCc3ccccc3)cc2c1
17,93 to 96 °C,CCCCOC(=O)C(C)NC(=O)c1cc([N+](=O)[O-])cc([N+](=O)[O-])c1 (centres undefined)
18,149 to 150 °C,CCOC(=O)C1=C(CO)NC(CF)=C(C(=O)OCC)C1c1cccc([N+](=O)[O-])c1 (centres undefined)

row,melting point,Compound
1,193 to 195 °C,COCc1cc(O)c2cccc(OC)c2n1
2,101 to 102 °C,CCOC(=O)c1ccc(C(=O)N(C)C)cc1S(=O)(=O)NC(C)(C)C
3,119 to 120 °C,CC(C)Oc1cccc(=O)n1O
4,160 °C,Nc1cc(=O)n(Cc2cccc(Br)c2)[nH]1
5,138 °C,CC1=C(C(=O)OC(C)C)C(c2cccc([N+](=O)[O-])c2)N(C(=O)OC(C)C)C(=S)N1 (centres undefined)
6,159 °C,CNC(=O)NCCN1CCC(=C2c3sccc3CCn3ccnc32)CC1
7,78 °C,CC(C)(C)OC(=O)CC(=O)c1ccc(C#N)s1
8,88 to 90 °C,CCOc1ccc2c(c1)C(O)Cc1c(Cl)cccc1S2 (centres undefined)
9,59 to 60 °C,CCCc1cc(=O)n2cccc(C)c2n1
10,> 230 °C,CCCn1c(=S)[nH]c2ccsc2c1=O
11,102 to 103 °C,CCOC(=O)c1cnn(-c2ccc(N)cc2)c1C(F)(F)F
12,110 to 112 °C,CCOC(=O)Cc1ccc(-c2ccc3oc(C(=O)OCC)c(C)c3c2)cc1
13,137 to 138 °C,COc1ccnc(CSc2nc3c(C)c(OC(F)F)c(C)cc3[nH]2)c1OC
14,102 to 104 °C,CCOC(=O)c1ccc(C#Cc2ccc3c(c2)C(=O)CC(C)(C)S3)cc1
15,233 to 234 °C,CN1CC=C(C(=O)N2c3ccccc3NC(=O)c3ccccc32)CC1
16,140 to 143 °C,CC(=O)Nc1c(C(=O)c2ccc(C)cc2)[nH]c2cc(Cl)ccc12
17,210 °C,CCC1(C)CN(c2c(F)c(N)c3c(=O)c(C(=O)O)cn(C4CC4)c3c2OC)CCC1N (centres undefined)
